Tests used:
[1] = Intrinsic clearance in human liver microsomes; assay type: ADME, Microsome
Cytochrome P450 2D6 = Cytochrome P450 2D6 (Homo sapiens, UniProt P10635); experiment: Inhibition of CYP2D6; assay type: ADME
[2] = Inhibition of H+/K+ ATPase in parietal cells assessed as inhibition of histamine-stimulated [14C]aminopyrine accumulation
[3] = Dissociation constant, pKa of the compound; assay type: physicochemical
[4] = Inhibition of H+/K+ ATPase at pH 7.4
[5] = Intrinsic clearance in rat liver microsomes; assay type: ADME, Microsome
[6] = Chromatographic hydrophobicity index at pH 7.4 by fast gradient HPLC; assay type: physicochemical; settings: buffer
Cytochrome P450 3A4 [7] = target: T1, Cytochrome P450 3A4 (Homo sapiens, UniProt P08684); experiment: Inhibition of CYP3A4 using 7-benzyloxyquinoline substrate; assay type: ADME
T1 sequence (P08684 whole entry): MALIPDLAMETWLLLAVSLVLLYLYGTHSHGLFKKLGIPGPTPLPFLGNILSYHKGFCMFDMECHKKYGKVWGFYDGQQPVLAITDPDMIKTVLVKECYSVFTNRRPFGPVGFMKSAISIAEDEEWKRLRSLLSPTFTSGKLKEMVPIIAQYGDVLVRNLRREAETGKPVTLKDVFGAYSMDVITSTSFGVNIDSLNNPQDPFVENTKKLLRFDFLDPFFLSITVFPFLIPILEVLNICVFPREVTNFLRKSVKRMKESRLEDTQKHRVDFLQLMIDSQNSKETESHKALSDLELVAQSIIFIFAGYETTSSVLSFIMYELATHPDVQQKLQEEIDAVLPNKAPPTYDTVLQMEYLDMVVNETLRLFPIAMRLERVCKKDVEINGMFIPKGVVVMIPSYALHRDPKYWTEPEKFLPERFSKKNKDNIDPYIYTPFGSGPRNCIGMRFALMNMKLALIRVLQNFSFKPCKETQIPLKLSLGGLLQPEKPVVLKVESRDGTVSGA

Cytochrome P450 1A2 = target: T2, Cytochrome P450 1A2 (Homo sapiens, UniProt P05177); experiment: Inhibition of CYP1A2; assay type: ADME
T2 sequence (P05177 whole entry): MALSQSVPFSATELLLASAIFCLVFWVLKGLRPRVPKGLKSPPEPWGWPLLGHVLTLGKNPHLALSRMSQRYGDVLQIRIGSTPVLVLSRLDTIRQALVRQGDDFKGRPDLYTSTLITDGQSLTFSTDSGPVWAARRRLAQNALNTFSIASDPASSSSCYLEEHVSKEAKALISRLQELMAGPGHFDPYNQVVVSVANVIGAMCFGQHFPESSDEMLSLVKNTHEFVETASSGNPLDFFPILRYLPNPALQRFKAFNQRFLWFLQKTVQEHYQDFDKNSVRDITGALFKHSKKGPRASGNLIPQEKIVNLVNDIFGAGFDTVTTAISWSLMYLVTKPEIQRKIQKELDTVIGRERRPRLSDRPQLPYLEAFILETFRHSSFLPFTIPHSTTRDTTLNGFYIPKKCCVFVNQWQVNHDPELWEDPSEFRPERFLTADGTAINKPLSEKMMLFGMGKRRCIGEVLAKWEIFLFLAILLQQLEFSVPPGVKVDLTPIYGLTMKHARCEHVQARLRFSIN

Cytochrome P450 3A4 [8] = target: T1, Cytochrome P450 3A4; experiment: Inhibition of CYP3A4 using diethoxyfluorescein substrate; assay type: ADME
Cytochrome P450 2C19 = Cytochrome P450 2C19 (Homo sapiens, UniProt P33261); experiment: Inhibition of CYP2C19; assay type: ADME
Chain of Cytochrome P450 2C19 (P33261 whole entry): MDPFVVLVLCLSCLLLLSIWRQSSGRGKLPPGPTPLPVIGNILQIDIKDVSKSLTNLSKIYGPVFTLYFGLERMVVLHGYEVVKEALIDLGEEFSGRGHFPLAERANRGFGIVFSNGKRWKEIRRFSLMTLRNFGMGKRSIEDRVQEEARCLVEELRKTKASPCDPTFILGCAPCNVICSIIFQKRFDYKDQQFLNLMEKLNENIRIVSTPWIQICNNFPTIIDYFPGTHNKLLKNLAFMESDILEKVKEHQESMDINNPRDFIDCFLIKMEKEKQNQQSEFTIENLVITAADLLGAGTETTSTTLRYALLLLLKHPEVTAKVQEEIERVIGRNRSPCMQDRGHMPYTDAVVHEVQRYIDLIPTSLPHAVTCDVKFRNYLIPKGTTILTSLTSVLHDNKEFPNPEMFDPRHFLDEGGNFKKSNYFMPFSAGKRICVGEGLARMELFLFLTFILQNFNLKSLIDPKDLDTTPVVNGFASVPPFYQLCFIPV

Cytochrome P450 2C9 = Cytochrome P450 2C9 (Homo sapiens, UniProt P11712)
Chain of Cytochrome P450 2C9 (P11712 whole entry): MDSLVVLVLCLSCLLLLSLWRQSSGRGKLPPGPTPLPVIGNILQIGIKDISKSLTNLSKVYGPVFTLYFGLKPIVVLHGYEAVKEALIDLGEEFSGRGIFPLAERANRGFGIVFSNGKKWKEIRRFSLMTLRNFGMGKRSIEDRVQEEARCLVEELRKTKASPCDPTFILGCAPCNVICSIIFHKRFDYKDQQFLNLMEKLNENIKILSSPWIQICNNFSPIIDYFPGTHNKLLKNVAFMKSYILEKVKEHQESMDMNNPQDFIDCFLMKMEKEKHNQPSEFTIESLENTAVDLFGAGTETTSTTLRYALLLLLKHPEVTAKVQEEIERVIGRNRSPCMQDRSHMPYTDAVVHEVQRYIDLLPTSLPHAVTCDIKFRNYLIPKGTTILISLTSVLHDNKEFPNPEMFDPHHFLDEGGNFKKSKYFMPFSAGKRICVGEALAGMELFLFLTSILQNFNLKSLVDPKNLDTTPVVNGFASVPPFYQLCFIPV

[9] = Intrinsic clearance in dog liver microsomes; assay type: ADME, Canis lupus familiaris, Microsome
[10] = Inhibition of H+/K+ ATPase in parietal cells assessed as inhibition of pentagastrin-stimulated [14C]aminopyrine accumulation at 50 nM; assay type: cell-based

Chain of Cytochrome P450 2D6 (P10635 whole entry): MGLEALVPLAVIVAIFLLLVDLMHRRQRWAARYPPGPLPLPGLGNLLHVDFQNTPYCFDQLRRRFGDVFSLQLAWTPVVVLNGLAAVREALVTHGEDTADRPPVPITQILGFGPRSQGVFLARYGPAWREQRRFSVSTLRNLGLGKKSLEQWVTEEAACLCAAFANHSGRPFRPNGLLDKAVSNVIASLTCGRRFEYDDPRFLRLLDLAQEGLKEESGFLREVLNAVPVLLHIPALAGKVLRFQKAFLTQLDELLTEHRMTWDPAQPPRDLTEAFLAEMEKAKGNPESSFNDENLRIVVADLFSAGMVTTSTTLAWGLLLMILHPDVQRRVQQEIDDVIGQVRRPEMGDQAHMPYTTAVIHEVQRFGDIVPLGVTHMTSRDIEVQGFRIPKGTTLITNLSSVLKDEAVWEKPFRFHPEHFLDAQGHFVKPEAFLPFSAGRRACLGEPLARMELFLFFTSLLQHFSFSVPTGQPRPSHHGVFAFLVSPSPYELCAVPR

Row | CLint scaled [1] [mL/min/kg] | IC50 (Cytochrome P450 2D6) [µM] | IC50 [2] [µM] | pKa ([3]; read-out: pKa) | pIC50 [4] | CLint scaled [5] [mL/min/kg] | chromatographic logD [6] | IC50 (Cytochrome P450 3A4 [7]) [µM] | IC50 (Cytochrome P450 1A2) [µM] | IC50 (Cytochrome P450 3A4 [8]) [µM] | IC50 (Cytochrome P450 2C19) [µM] | IC50 (Cytochrome P450 2C9) [µM] | pKa [3] | CLint scaled [9] [mL/min/kg] | SMILES | inhibition [10] [%]
1 | 12.1 | 45.5 | 0.251 | 4.5 | 6.8 | 21.9 | 3.12 |  | > 100 | 5.6 | 40 | 11.4 |  |  | Cc1cccc(C)c1CNc1nc(-n2ccccc2=O)cc2c(C)c(C)n(CCO)c12 | 
2 | 8 | 35 | 0.0447 |  | 5.5 | 47 |  | 9 | 2.1 | 13 | 9.2 | 8.8 |  |  | Cc1cccc(C)c1CNc1cccc2c1nc(C)n2C | 
3 |  | 2.3 |  | 7.41 | 7.6 |  | 3.38 | 18 | 0.7 | 5.5 | 6.2 | 16 |  |  | Cc1cccc(C)c1COc1cccn2c(C)c(C)nc12 | 
4 |  |  |  |  | 6.1 |  | 3.53 |  |  |  |  |  |  |  | Cc1cccc(C)c1CNc1ccnn2c(C)c(C)nc12 | 
5 |  |  | 0.282 |  | 7.1 |  | 3.4 |  |  |  |  |  |  |  | Cc1cccc(C)c1CNc1nccn2c(C)c(C)nc12 | 
6 |  |  |  | 5.81 | 4.5 |  | 2.27 |  |  |  |  |  |  |  | Cc1cccc(C)c1CNc1ccnc2c1nc(C)n2C | 
7 | 6.5 |  | 0.0234 |  |  | 14 |  |  |  |  |  |  |  | 3 | CCc1cccc(C)c1CNc1cc(C(N)=O)cn2c(C)c(C)nc12 | 
8 | 11 | < 0.1 | 0.141 | 7.92 | 7.6 | 50 | 3.54 | 1.6 | 6.1 | 4.7 | 4.7 | 14 |  |  | Cc1cccc(C)c1CNc1nccn2c(C)c(C)cc12 | 
9 | 6.9 | 36 | 0.0794 | 5.4 | 6.6 | 6.5 | 2.93 | 11 | > 100 | 6 | > 100 | 13 |  |  | Cc1cccc(C)c1CNc1nc(N2CCOCC2=O)cc2c(C)c(C)n(CCO)c12 | 
10 |  |  |  | 6.03 | 4.1 |  |  |  |  |  |  |  |  |  | Cc1cccc(C)c1CNc1cccn2c(C)ncc12 | 
11 | 1.3 |  | 0.0562 | 6.27 |  | 4 | 2.14 |  |  |  |  |  |  | 0.9 | Cc1cccc(C)c1CNc1cc(C(=O)NCCO)cn2c(C)c(C)nc12 [LINAPRAZAN] | 

More lines, now with the values behind:

Row | SMILES | CLint scaled [1] [mL/min/kg] | IC50 (Cytochrome P450 2D6) [µM] | IC50 [2] [µM] | pKa ([3]; read-out: pKa) | pIC50 [4] | CLint scaled [5] [mL/min/kg] | chromatographic logD [6] | IC50 (Cytochrome P450 3A4 [7]) [µM] | IC50 (Cytochrome P450 1A2) [µM] | IC50 (Cytochrome P450 3A4 [8]) [µM] | IC50 (Cytochrome P450 2C19) [µM] | IC50 (Cytochrome P450 2C9) [µM] | pKa [3] | CLint scaled [9] [mL/min/kg] | inhibition [10] [%]
12 | Cc1nc2c(OCc3ccccc3)cccn2c1CC#N | 8 | 82 | 0.0166 | 7.28 | 7.4 | 8.5 | 4.2 | 12 | 2 | 9 | > 100 |  |  |  | 
13 | CCn1c(C)c(C)c2cc(-n3ccccc3=O)nc(NCc3c(C)cccc3C)c21 | 22 | 18 | 0.2 | 4 | 7.4 | 41 | 3.9 |  | 65 | 2.9 | 6.5 | 0.7 |  |  | 
14 | Cc1cccc(C)c1CNc1nccc2cc[nH]c12 |  |  |  | 8.63 | 6.8 |  |  |  |  |  |  |  |  |  | 
15 | Cc1cccc(C)c1CNc1ncnc2c(C)c(C)[nH]c12 | 2.8 | 0.3 | 0.0631 |  | 5.9 | 9 | 2.53 | > 100 | > 100 | 8.8 | > 10 | > 100 |  |  | 
16 | Cc1cccc(C)c1CNc1nc(-n2ccccc2=O)cc2c(C)c(C)[nH]c12 | 2.7 | > 33 |  | 4.71 | 7.4 | 2.9 | 3.18 | 90 | 29 | 3 | 20 | 3.3 |  |  | 
17 | Cc1cc2ncnc(NCc3c(C)cccc3C)c2s1 |  |  |  |  | < 4 |  |  |  |  |  |  |  |  |  | 
18 | Cc1cccc(C)c1CNc1ncnc2c(C)csc12 |  |  |  |  | < 4 |  |  |  |  |  |  |  |  |  | 
19 | Cc1cccc(C)c1CNc1nc(N2CCOCC2=O)cc2c(C)c(C)[nH]c12 | 1.6 | 25 | 0.2 |  | 5.9 | 4.3 | 2.83 | 22 | 35 | 22 | 66 | 61 | Insoluble |  | 
20 | Cc1cccc(C)c1CNc1nccc2c1nc(C)n2C | 3.4 | < 0.1 | 0.0741 | 7.49 | 5.3 | 14 | 2.09 | 21 | 31 | 12 | 27 | 68 |  | 6.5 | 
21 | Cc1cccc(C)c1CNc1nccc2c(C)c[nH]c12 |  |  |  | 8.71 | 9 |  |  |  |  |  |  |  |  |  | 92.5
22 | Cc1cccc(C)c1CNc1nc(N2CCCC2=O)cc2c(C)c(C)[nH]c12 |  | 1.9 | 0.158 | 6.32 | 7.4 |  | 3.77 | 1.8 | 26 | 1 | 6.4 | 1.4 |  |  | 
23 | C=CCn1c(C)c(C)c2cc(-n3ccccc3=O)nc(NCc3c(C)cccc3C)c21 | 13 | 26 |  | 4 | 7.5 | 20 | 4.06 |  | 62 | 2.4 | 6 | 0.5 |  |  | 
24 | Cc1[nH]c2c(NCc3ccccc3)nccc2c1C |  |  |  | 8.79 | 8.4 |  |  |  |  |  |  |  |  |  | 98.5
25 | Cc1cccc(C)c1CNc1nc(-c2cccc(=O)[nH]2)cc2c(C)c(C)[nH]c12 |  | 60 | 0.316 |  | 5.1 |  | 4.12 | 2.2 | > 100 | 1.3 | 62 | 2.3 | Insoluble |  | 
26 | Cc1cccc(C)c1CNc1nc(N2CCNC2=O)cc2c(C)c(C)[nH]c12 | 1.3 | 0.7 | 0.158 |  | 6.5 | 6 | 2.54 | 1.6 | 22 | 1.6 | 8.2 | 2.7 |  |  | 
27 | Cc1cccc(C)c1CNc1nc(-c2ccccc2)cc2c(C)c(C)[nH]c12 | < 0.5 | 0.6 | 0.316 |  | 6.3 | 3.9 | 5.31 | 6.6 | 3.7 | 7.7 | 0.3 | 6.7 | Insoluble |  | 
28 | Cc1cccc(C)c1CNc1nccc2c(C)c(C)[nH]c12 | 5 | < 0.1 | 0.0708 |  | 9.4 | 50 | 2.29 | 9.6 | 14 | 9 | 1.8 | 33 |  | 19 | 67.3
